Data reported in ChEMBL document CHEMBL5154675, “Design, Synthesis, and Biological Evaluation of 1-(Indolizin-3-yl)ethan-1-ones as CBP Bromodomain Inhibitors for the Treatment of Prostate Cancer” (J Med Chem, 2022).
Active and inactive are the calls of the source. No cut-off for these calls is given here.

Key:
[1] = molecular target: Bromodomain-containing protein 4 (Homo sapiens, UniProt O60885); settings: dose 200.0 µM, time 30.0 min
[2] = Hepatic extraction ratio in human liver microsomes at 1 uM incubated for 45 mins in presence of NADPH by LC-MS/MS analysis; assay type: ADME, Microsome; settings: read-out: ERH
[3] = molecular target: T1, Bromodomain-containing protein 2 (Homo sapiens, UniProt P25440); settings: dose 200.0 µM, time 30.0 min
Target sequence in this assay (P25440 whole entry, looked up): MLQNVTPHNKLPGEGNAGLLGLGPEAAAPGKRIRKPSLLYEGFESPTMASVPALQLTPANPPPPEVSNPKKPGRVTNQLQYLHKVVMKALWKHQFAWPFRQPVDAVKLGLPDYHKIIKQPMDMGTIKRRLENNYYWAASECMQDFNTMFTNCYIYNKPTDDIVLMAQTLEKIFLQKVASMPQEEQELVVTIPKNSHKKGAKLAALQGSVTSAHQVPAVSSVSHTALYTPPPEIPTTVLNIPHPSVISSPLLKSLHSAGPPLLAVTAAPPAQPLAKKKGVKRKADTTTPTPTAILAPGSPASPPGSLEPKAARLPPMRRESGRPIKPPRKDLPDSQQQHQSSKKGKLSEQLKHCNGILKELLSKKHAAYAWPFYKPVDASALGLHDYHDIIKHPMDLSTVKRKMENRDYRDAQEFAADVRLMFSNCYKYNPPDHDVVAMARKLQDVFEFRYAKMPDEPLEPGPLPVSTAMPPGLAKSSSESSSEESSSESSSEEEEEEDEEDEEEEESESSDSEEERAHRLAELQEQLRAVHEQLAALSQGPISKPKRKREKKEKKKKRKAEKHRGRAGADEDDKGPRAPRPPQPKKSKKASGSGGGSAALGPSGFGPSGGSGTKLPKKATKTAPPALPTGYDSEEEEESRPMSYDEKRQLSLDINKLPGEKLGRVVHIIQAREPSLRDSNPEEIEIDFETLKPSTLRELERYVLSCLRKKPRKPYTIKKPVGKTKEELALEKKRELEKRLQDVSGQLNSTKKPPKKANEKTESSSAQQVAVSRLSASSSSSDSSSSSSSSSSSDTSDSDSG

LNCaP C4-2B [4] = assay: Induction of apoptosis in human LNCaP C4-2B cells assessed as increase in apoptotic cells at 20 uM measured after 48 hrs by Annexin V-FITC and propidium iodide staining based flow cytometry (Rvb= 1%); assay type: functional
[5] = Clearance in Sprague-Dawley rat at 5 mg/kg, iv administered as single dose measured up to 24 hrs; assay type: ADME, organism-based; settings: in vivo, iv, 5 mg/kg, 24 h
[6] = Half life in Sprague-Dawley rat at 5 mg/kg, iv administered as single dose measured up to 24 hrs; assay type: ADME, organism-based; settings: Sprague-Dawley, in vivo
[7] = Toxicity in NOD SCID mouse xenografted with human 22Rv1 cells assessed as mortality at 40 mg/kg, ip administered once daily for 21 days; assay type: organism-based, CWR22R; settings: in vivo, 504 h, time 21 day
[8] = molecular target: T1, Bromodomain-containing protein 2; assay: Binding affinity to His6-tagged human BRD2 bromodomain-1 (77 to 194 residues) expressed in Escherichia coli BL21 (DE3) assessed as dissociation constant by ITC analysis
Target sequence in this assay (P25440 whole entry): as the sequence (P25440 whole entry, looked up) above

[9] = Half life in rat liver microsomes at 1 uM incubated for 45 mins in presence of NADPH by LC-MS/MS analysis; assay type: ADME, Microsome
LNCaP [10] = assay: Antiproliferative activity against human LNCaP cells assessed as cell growth inhibition by Celltiter-Glo assay; assay type: functional, cell-based
[11] = molecular target: T2, Bromodomain testis-specific protein (Homo sapiens, UniProt Q58F21); settings: dose 200.0 µM, time 30.0 min
[12] = Oral bioavailability in Sprague-Dawley rat at 25 mg/kg measured up to 24 hrs; assay type: ADME, organism-based; settings: in vivo
[13] = Intrinsic clearance in human liver microsomes at 1 uM incubated for 45 mins in presence of NADPH by LC-MS/MS analysis; assay type: ADME, Microsome; settings: read-out: CLH
LNCaP C4-2B [14] = assay: Inhibition of colony formation in human LNCaP C4-2B cells at 1 to 4 uM incubated for 14 days by crystal violet staining based assay; assay type: functional, cell-based; settings: dose 1-4 µM, time 14.0 day
LNCaP C4-2B [15] = assay: Suppression of PSA gene expression in human LNCaP C4-2B cells transfected with renilla luciferase incubated for 24 hrs by dual luciferase reporter assay; assay type: functional, cell-based; settings: dose 0.4-10 µM, DDE = dose-dependent effect
[16] = molecular target: T3, Bromodomain-containing protein 3 (Homo sapiens, UniProt Q15059); settings: dose 200.0 µM, time 30.0 min
Target sequence in this assay (Q15059 2-726 limits assumed): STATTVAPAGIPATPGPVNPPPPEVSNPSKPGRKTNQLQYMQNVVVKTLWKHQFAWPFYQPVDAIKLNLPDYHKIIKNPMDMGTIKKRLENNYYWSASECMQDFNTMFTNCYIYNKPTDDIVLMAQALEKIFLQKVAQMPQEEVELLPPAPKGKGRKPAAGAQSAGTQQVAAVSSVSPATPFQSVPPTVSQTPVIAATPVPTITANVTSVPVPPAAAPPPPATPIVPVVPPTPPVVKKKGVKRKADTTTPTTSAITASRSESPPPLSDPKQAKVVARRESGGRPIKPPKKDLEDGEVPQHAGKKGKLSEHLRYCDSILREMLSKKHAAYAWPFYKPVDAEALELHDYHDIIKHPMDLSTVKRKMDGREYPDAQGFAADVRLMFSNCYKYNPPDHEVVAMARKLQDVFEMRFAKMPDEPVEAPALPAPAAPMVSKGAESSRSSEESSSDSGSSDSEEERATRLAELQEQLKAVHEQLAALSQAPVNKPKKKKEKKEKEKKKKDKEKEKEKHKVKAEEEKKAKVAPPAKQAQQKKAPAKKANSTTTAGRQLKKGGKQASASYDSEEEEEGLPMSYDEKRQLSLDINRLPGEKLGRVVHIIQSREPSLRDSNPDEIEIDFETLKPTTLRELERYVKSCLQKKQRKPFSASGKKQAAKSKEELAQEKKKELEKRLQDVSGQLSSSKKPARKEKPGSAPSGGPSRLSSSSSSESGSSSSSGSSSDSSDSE

[17] = Cmax in Sprague-Dawley rat at 25 mg/kg, po measured up to 24 hrs; assay type: ADME, organism-based; set-up: dose 25 mg/kg, time < 24 hrs, route po; settings: in vivo
[18] = molecular target: Chromatin remodeling regulator CECR2 (Homo sapiens) (UniProt Q9BXF3); settings: dose 200.0 µM, time 30.0 min
CWR22R [19] = assay: Suppression of Androgen receptor target-gene expression in human 22Rv1 cells at 5 uM incubated for 48 hrs by SYBR green dye-based qRT-PCR analysis; assay type: functional, cell-based
[20] = Hepatic clearance in human liver microsomes at 1 uM incubated for 45 mins in presence of NADPH by LC-MS/MS analysis; assay type: ADME, Microsome; settings: read-out: CLH
LNCaP C4-2B [21] = assay: Induction of apoptosis in human LNCaP C4-2B cells assessed as increase in apoptotic cells at 10 uM measured after 48 hrs by Annexin V-FITC and propidium iodide staining based flow cytometry (Rvb= 1%); assay type: functional
LNCaP C4-2B [22] = assay: Antiproliferative activity against human LNCaP C4-2B cells assessed as inhibition of cell growth by Celltiter-Glo assay; assay type: functional, cell-based
CREB-binding protein = CREB-binding protein (Homo sapiens, UniProt Q92793); assay: Inhibition of His6-tagged human CBP bromodomain (1081 to 1197 residues) expressed in Escherichia coli BL21 (DE3) incubated for 30 mins by HTRF assay
[23] = molecular target: T2, Bromodomain testis-specific protein; settings: dose 200.0 µM, time 30.0 min; remark: listed apart in the source
[24] = Toxicity in NOD SCID mouse xenografted with human 22Rv1 cells assessed as body weight loss at 40 mg/kg, ip administered once daily for 21 days and measured every other day; assay type: organism-based, CWR22R; settings: in vivo, 504 h, time 21 day
CWR22R [25] = assay: Suppression of Androgen receptor variants gene expression in human 22Rv1 cells incubated for 48 hrs by SYBR green dye-based qRT-PCR analysis; assay type: functional, cell-based; settings: dose 0-20 µM, DDE = dose-dependent effect
[26] = molecular target: T4, Bromodomain-containing protein 9 (Homo sapiens) (UniProt Q9H8M2); settings: dose 200.0 µM, time 30.0 min
T4 sequence (whole entry): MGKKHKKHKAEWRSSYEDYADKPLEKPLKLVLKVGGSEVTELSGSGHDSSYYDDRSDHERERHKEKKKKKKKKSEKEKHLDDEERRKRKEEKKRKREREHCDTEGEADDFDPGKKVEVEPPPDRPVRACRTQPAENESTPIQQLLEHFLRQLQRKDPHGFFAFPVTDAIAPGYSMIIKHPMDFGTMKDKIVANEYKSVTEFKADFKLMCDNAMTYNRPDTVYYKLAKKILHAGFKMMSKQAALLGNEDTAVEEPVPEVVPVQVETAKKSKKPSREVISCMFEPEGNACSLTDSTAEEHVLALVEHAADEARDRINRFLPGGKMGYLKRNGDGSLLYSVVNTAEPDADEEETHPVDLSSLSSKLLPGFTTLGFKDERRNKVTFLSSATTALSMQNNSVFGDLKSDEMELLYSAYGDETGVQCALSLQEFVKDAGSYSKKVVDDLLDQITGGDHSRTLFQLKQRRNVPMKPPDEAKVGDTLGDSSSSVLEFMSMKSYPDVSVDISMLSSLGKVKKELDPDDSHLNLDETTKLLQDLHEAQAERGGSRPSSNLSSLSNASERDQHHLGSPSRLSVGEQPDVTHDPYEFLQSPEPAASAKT

[27] = molecular target: SWI/SNF-related matrix-associated actin-dependent regulator of chromatin subfamily A member 2 (Homo sapiens) (UniProt P51531); settings: dose 200.0 µM, time 30.0 min
Chain of SWI/SNF-related matrix-associated actin-dependent regulator of chromatin subfamily A member 2 (Homo sapiens) (P51531 whole entry): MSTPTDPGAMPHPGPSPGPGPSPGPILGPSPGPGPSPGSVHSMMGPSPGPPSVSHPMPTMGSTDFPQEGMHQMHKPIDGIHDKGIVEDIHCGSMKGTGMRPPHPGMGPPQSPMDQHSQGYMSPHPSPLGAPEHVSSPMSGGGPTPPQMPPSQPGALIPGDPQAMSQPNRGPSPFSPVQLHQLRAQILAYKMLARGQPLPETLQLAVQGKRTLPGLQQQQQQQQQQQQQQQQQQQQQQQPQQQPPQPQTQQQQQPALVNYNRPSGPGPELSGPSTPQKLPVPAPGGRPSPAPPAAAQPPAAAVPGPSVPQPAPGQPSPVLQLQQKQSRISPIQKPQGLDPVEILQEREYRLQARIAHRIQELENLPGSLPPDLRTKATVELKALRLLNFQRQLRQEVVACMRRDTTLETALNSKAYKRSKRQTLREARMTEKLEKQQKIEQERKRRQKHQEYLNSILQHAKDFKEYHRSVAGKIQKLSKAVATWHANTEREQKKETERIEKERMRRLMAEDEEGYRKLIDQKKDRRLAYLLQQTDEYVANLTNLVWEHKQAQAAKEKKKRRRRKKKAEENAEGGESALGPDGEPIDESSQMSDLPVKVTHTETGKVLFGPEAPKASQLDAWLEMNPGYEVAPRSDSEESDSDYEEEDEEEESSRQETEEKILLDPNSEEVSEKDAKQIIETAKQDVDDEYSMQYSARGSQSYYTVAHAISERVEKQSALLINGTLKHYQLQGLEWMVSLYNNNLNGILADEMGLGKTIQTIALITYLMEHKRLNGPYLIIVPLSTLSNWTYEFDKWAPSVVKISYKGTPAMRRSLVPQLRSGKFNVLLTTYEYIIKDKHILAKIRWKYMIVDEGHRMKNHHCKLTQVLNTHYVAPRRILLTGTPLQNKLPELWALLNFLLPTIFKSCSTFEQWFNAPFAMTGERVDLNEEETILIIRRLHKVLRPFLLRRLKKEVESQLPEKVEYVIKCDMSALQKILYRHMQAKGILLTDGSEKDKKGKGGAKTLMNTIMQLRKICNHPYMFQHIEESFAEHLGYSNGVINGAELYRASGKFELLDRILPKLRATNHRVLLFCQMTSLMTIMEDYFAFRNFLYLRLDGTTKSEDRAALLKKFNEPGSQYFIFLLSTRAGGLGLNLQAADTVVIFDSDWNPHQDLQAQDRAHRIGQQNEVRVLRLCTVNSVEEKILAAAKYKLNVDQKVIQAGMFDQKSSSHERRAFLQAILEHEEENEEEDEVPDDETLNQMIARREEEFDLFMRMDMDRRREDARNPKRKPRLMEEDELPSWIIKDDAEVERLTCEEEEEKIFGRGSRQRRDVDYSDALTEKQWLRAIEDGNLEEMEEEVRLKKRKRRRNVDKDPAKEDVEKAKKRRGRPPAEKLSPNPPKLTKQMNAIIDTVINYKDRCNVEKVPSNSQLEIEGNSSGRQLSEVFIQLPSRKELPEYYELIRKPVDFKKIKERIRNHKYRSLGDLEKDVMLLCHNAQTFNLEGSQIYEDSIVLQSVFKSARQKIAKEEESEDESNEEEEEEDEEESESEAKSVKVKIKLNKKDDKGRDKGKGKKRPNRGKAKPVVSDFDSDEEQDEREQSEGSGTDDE

[28] = molecular target: Histone acetyltransferase p300 (Homo sapiens) (UniProt Q09472); settings: dose 200.0 µM, time 30.0 min
LNCaP [29] = assay: Suppression of Androgen receptor target-gene expression in human LNCaP cells at 5 uM incubated for 48 hrs by SYBR green dye-based qRT-PCR analysis; assay type: functional, cell-based
[30] = molecular target: T3, Bromodomain-containing protein 3; assay: Binding affinity to His6-tagged human BRD3 bromodomain-2 (306 to 416 residues) expressed in Escherichia coli BL21 (DE3) assessed as dissociation constant by ITC analysis
Target sequence in this assay (Q15059 whole entry): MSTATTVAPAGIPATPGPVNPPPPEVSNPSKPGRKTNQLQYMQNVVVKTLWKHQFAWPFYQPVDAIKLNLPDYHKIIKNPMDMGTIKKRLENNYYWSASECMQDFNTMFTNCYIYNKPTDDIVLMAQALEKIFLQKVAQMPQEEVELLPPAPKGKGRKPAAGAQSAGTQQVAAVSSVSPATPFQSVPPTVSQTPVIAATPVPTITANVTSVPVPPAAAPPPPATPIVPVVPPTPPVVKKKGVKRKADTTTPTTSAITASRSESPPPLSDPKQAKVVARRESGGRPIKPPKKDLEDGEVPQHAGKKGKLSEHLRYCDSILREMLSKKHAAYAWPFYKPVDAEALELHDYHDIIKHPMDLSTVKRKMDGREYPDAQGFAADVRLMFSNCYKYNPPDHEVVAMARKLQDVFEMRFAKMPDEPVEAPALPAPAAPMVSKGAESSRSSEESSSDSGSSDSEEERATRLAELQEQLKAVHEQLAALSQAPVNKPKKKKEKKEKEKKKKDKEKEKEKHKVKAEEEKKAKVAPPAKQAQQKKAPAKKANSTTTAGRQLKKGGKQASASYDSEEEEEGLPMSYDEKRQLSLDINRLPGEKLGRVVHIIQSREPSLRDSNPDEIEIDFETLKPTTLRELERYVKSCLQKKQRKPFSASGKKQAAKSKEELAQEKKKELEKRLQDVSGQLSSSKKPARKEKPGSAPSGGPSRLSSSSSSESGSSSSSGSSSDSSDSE

[31] = Metabolic stability in human liver microsomes assessed as parent compound remaining at 1 uM incubated for 45 mins in presence of NADPH by LC-MS/MS analysis; assay type: ADME, Microsome; settings: read-out: Stability

COc1ccn2c(C(C)=O)cc(C(=O)Nc3cc(C(C)O)cc(-c4cnn(C5CC5)c4)c3F)c2c1 (configuration not stated)
ΔTm [1]: -0.5 °C | hepatic extraction ratio at 0.75 h, 1 µM [2]: 0.798 | ΔTm [3]: 1 °C | Activity (LNCaP C4-2B [4]): 13.08% | CL [5]: 0.14 L/h/kg | half-life [6]: 36.6 min | Activity [7]: Non-Toxic | Kd [8]: 840 nM | half-life at 1 µM [9]: 45.9 min | IC50 (LNCaP [10]): 590 nM | ΔTm [11]: -3 °C | bioavailability [12]: 25.9% | CLint scaled at 1 µM [13]: 81.9 mL/min/kg | inhibition (LNCaP C4-2B [14]): Active | Activity (LNCaP C4-2B [15]): Dde | ΔTm [16]: -1.3 °C | Cmax [17]: 1570 ng/mL | ΔTm [18]: 0 °C | Activity (CWR22R [19]): Active | CLint scaled at 1 µM [20]: 16.5 mL/min/kg | Activity (LNCaP C4-2B [21]): 10.39% | IC50 (LNCaP C4-2B [22]): 6.43 µM | IC50 (CREB-binding protein): 4.21 nM | ΔTm [23]: -3.3 °C | Activity [24]: Non-Toxic | Activity (CWR22R [25]): Dde | ΔTm [26]: 5 °C | ΔTm [27]: -0.5 °C | ΔTm [28]: 12 °C | Activity (LNCaP [29]): Active | Kd [30]: 1500 nM | remaining at 0.75 h, 1 µM [31]: 23.1%
